Results on 15 compounds are retold here after patent publication US8697868B2, “8-[3-amino-piperidin-1-yl]-xanthines, their preparation and their use as pharmaceutical compositions” (Boehringer Ingelheim International GmbH, priority 2004, dated 2014).

In general, melting point refers to the temperature of the solid-liquid transition. In general, IC50 refers to the concentration that inhibits the measured activity by half.

Sequence of DPP-IV (P27487 whole entry): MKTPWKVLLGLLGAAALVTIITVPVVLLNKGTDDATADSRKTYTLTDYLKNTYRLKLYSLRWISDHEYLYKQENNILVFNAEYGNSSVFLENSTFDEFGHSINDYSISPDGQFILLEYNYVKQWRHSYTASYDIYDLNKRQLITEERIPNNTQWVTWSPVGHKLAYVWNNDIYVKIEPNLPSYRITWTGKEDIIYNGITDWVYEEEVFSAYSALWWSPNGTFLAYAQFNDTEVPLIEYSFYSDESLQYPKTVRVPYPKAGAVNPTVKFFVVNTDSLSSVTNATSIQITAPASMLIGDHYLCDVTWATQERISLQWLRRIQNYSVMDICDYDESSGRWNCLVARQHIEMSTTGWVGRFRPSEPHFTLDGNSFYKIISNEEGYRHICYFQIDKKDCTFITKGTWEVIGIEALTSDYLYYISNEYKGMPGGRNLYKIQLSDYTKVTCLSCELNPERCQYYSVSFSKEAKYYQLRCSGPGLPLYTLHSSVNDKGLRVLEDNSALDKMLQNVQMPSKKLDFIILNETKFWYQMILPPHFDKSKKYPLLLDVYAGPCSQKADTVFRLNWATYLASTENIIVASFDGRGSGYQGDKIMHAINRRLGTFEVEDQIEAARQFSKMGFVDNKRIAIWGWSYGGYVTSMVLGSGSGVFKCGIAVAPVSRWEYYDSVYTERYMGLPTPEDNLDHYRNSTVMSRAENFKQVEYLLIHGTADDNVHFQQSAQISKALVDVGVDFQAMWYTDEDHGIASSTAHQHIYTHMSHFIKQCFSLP

Tested on in the first data set: not given
Assay: not given
Conditions: not given
Take `CC#CCn1c(N2CCC[C@@H](N)C2)nc2c1c(=O)n(Cc1nc(C)cc(C)n1)c(=O)n2C` [Example 1(82), 1-[(4,6-dimethyl-pyrimidin-2-yl)methyl]-3-methyl-7-(2-butyn-1-yl)-8-((R)-3-amino-piperidin-1-yl)-xanthine]: the melting point fell in the range of 202 to 204 °C. The same measure, in the same setting: as for `CC#CCn1c(N2CCC[C@@H](N)C2)nc2c1c(=O)n(Cc1ccccc1)c(=O)n2C` [Example 1(43), 1-benzyl-3-methyl-7-(2-butyn-1-yl)-8-((R)-3-amino-piperidin-1-yl)-xanthine], the figure is 207 to 209 °C; as for `CC#CCn1c(N2CCC[C@@H](N)C2)nc2c1c(=O)n(Cc1cnccc1C#N)c(=O)n2C` [Example 1(102), 1-[(4-cyano-pyridin-3-yl)methyl]-3-methyl-7-(2-butyn-1-yl)-8-((R)-3-amino-piperidin-1-yl)-xanthine], 166 °C.

The next data set has as its system rats. Nature of the data set: Tolerability after oral administration in rats. Format: in vivo. The conditions noted are these: oral administration of 10 mg/kg.
Take `CC#CCn1c(N2CCC[C@@H](N)C2)nc2c1c(=O)n(Cc1nc3ccccc3cc1C#N)c(=O)n2C` [Example 1(30), 1-[(3-cyano-quinolin-2-yl)methyl]-3-methyl-7-(2-butyn-1-yl)-8-((R)-3-amino-piperidin-1-yl)-xanthine]: the toxic side effects entry is listed as “no toxic side effects could be detected”.

Another data set concerns the target DPP-IV (Homo sapiens (Human), UniProt P27487). Nature of the data set: DPP-IV assay with Caco-2 cell extract as DPP IV source. Format: biochemical. To be noted: extract of human colon carcinoma cell line Caco-2 as DPP IV source; AFC substrate 100 μM; 60 minutes at ambient temperature; read-out: DPP IV inhibition IC50. As to the method:
The differentiation of the cells in order to induce the DPP-IV expression was carried out in accordance with the description by Reiher et al. in an article entitled “Increased expression of intestinal cell line Caco-2” that appeared in Proc. Natl. Acad. Sci. Vol. 90, pp. 5757-5761 (1993). The cell extract was obtained from cells solubilized in a buffer (10 mM Tris HCl, 0.15 M NaCl, 0.04 t.i.u. aprotinin, 0.5% Nonidet-P40, pH 8.0) by centrifugation at 35,000 g for 30 minutes at 4° C. (to remove cell debris).
The DPP-IV assay was carried out as follows:
50 μl of substrate solution (AFC; AFC is amido-4-trifluoromethylcoumarin), final concentration 100 μM, was placed in black microtitre plates. 20 μl of assay buffer (final concentrations 50 mM Tris HCl pH 7.8, 50 mM NaCl, 1% DMSO) was pipetted therein. The reaction was started by the addition of 30 μl of solubilized Caco-2 protein (final concentration 0.14 μg of protein per well). The test substances under investigation were typically added prediluted to 20 μl, while the volume of assay buffer was then reduced accordingly. The reaction was carried out at ambient temperature, the incubation period was 60 minutes. Then the fluorescence was measured in a Victor 1420 Multilabel Counter, with the excitation wavelength at 405 nm and the emission wavelength at 535 nm. Dummy values (corresponding to 0% activity) were obtained in mixtures with no Caco-2 protein (volume replaced by assay buffer), control values (corresponding to 100% activity) were obtained in mixtures without any added substance. The potency of the test substances in question, expressed as IC50 values, were calculated from dosage/activity curves consisting of 11 measured points in each case.
In the case of `CC#CCn1c(N2CCC[C@@H](N)C2)nc2c1c(=O)n(Cc1ccc3cncnc3c1)c(=O)n2C` [1(38), 1-[(quinazolin-7-yl)methyl]-3-methyl-7-(2-butyn-1-yl)-8-((R)-3-amino-piperidin-1-yl)-xanthine], the half-maximal inhibitory concentration (IC50) turned out to be 1 nM. For the compound `CC#CCn1c(N2CCCC(N)C2)nc2c1c(=O)n(Cc1nc(Nc3ccccc3)c3ccccc3n1)c(=O)n2C` (stereo not shown) [Example 1, 1-[(4-phenylamino-quinazolin-2-yl)methyl]-3-methyl-7-(2-butyn-1-yl)-8-(3-amino-piperidin-1-yl)-xanthine], the IC50 came to 6 nM.

In the case of `CC#CCn1c(N2CCC[C@@H](N)C2)nc2c1c(=O)n(Cc1ccc3nc(C)c(C)nc3c1)c(=O)n2C` [1(12), 1-[(2,3-dimethyl-quinoxalin-6-yl)methyl]-3-methyl-7-(2-butyn-1-yl)-8-((R)-3-amino-piperidin-1-yl)-xanthine], the IC50 came out at 2 nM. On the same count and under the same terms, the figure for `CC#CCn1c(N2CCC[C@@H](N)C2)nc2c1c(=O)n(Cc1cnc3cccnc3c1)c(=O)n2C` [1(26), 1-[([1,5]naphthyridin-3-yl)methyl]-3-methyl-7-(2-butyn-1-yl)-8-((R)-3-amino-piperidin-1-yl)-xanthine] is 2 nM. On the same count and under the same terms, as for `CC#CCn1c(N2CCC[C@@H](N)C2)nc2c1c(=O)n(CC(=O)c1cccc(OC3CC3)c1)c(=O)n2C` [1(7), 1-[2-(3-cyclopropyloxy-phenyl)-2-oxo-ethyl]-3-methyl-7-(2-butyn-1-yl)-8-((R)-3-amino-piperidin-1-yl)-xanthine], the figure is 5 nM; as for `CC#CCn1c(N2CCC[C@@H](N)C2)nc2c1c(=O)n(Cc1nccc(-c3ccccc3)n1)c(=O)n2C` [1(31), 1-[(4-phenyl-pyrimidin-2-yl)methyl]-3-methyl-7-(2-butyn-1-yl)-8-((R)-3-amino-piperidin-1-yl)-xanthine], 3 nM.

Take `CC#CCn1c(N2CCC[C@@H](N)C2)nc2c1c(=O)n(Cc1ccccc1C#N)c(=O)n2C` [1(39), 1-(2-cyano-benzyl)-3-methyl-7-(2-butyn-1-yl)-8-((R)-3-amino-piperidin-1-yl)-xanthine]: the concentration for half-maximal inhibition (IC50) was found to be 2 nM. Same read-out and setting: as for `CC#CCn1c(N2CCC[C@@H](N)C2)nc2c1c(=O)n(Cc1cc(C#N)cc3ccccc13)c(=O)n2C` [1(3), 1-[(3-cyano-naphthalen-1-yl)methyl]-3-methyl-7-(2-butyn-1-yl)-8-((R)-3-amino-piperidin-1-yl)-xanthine], the figure is 6 nM; as for `CC#CCn1c(N2CCC[C@@H](N)C2)nc2c1c(=O)n(CC(=O)c1ccccc1-c1cccnc1)c(=O)n2C` [1(21), 1-{2-oxo-2-[2-(pyridin-3-yl)-phenyl]-ethyl}-3-methyl-7-(2-butyn-1-yl)-8-((R)-3-amino-piperidin-1-yl)-xanthine], 2 nM. Take `CC#CCn1c(N2CCC[C@@H](N)C2)nc2c1c(=O)n(Cc1cc(C#N)c3ccccc3n1)c(=O)n2C` [1(6), 1-[(4-cyano-quinolin-2-yl)methyl]-3-methyl-7-(2-butyn-1-yl)-8-((R)-3-amino-piperidin-1-yl)-xanthine]: the IC50 is 2 nM. On the same count and under the same terms, as for `CC#CCn1c(N2CCC[C@@H](N)C2)nc2c1c(=O)n(Cc1nc3ccccc3cc1C#N)c(=O)n2C` [Example 1(30), 1-[(3-cyano-quinolin-2-yl)methyl]-3-methyl-7-(2-butyn-1-yl)-8-((R)-3-amino-piperidin-1-yl)-xanthine], the figure is 2 nM; as for `CC#CCn1c(N2CCC[C@@H](N)C2)nc2c1c(=O)n(Cc1nc(-c3ccccc3)nc3ccccc13)c(=O)n2C` [1(4), 1-[(2-phenyl-quinazolin-4-yl)methyl]-3-methyl-7-(2-butyn-1-yl)-8-((R)-3-amino-piperidin-1-yl)-xanthine], 9 nM.
